In patent US20090196930A1, “AEROSOLIZED NITRITE AND NITRIC OXIDE -DONATING COMPOUNDS AND USES THEREOF” (Aires Pharmaceuticals, Inc., priority 2007, published 2009):

Tests used:
Sprague-Dawley rats = assay: 7-day inhalation dose range finding toxicology, rat
Protocol: Formulations. […] The formulations defined below were titrated by nebulization time to achieve the dose levels define in Table 21.
Results & Discussion (Rats). A 7-Day range-finding study with nebulized Formulation I Inhalation Solution was performed via inhalation through the nose of male and female Sprague-Dawley rats.

in vivo = conditions: rat, plasma
Protocol: Rats (n=3-4/group, ˜400 gm) were anesthetized with Isoflorane and the dry powder was insufflated intratracheally using a Penn-Century Insufflator (model DP-4: Philadelphia, Pa.). Blood was collected in heparinized tubes just prior to dosing, 5, 15, 30 and 60 minutes after dosing, immediately put on wet ice and then centrifuged at 13,000 rpm in a microcentrifuge for 45 sec. Plasma was harvested and frozen at −80° C. until analysis.

[1] = system: monocrotaline-induced pulmonary hypertension; assay: Monocrotaline model of pulmonary hypertension, inhaled nebulized liquid sodium nitrite; conditions: rat, 5 μg/kg liquid aerosol
[2] = 101 mg/kg/day inhaled (dose lowered after day 1)
[3] = high dose group after lowering of dose, printed (76)
[4] = inhaled or intranasal, 90 ug/kg
[5] = inhaled or intranasal, 700 ug/kg

O=NO [sodium nitrite]
Mortality (%) Female (Sprague-Dawley rats; 4 mg/kg/day inhaled): 0%
Mortality (%) Male (Sprague-Dawley rats; 4 mg/kg/day inhaled): 0%
Peak MetHgb (%) On Day 1 Female (Sprague-Dawley rats; 4 mg/kg/day inhaled): 1.0 ± 0.1%
Peak MetHgb (%) On Day 1 Male (Sprague-Dawley rats; 4 mg/kg/day inhaled): 1.0 ± 0.0%
Peak MetHgb (%) On Day 7 Female (Sprague-Dawley rats; 4 mg/kg/day inhaled): 1.3 ± 0.1%
Peak MetHgb (%) On Day 7 Male (Sprague-Dawley rats; 4 mg/kg/day inhaled): 1.0 ± 0.0%
Mortality (%) Female (Sprague-Dawley rats; 18 mg/kg/day inhaled): 0%
Mortality (%) Male (Sprague-Dawley rats; 18 mg/kg/day inhaled): 0%
Peak MetHgb (%) On Day 1 Female (Sprague-Dawley rats; 18 mg/kg/day inhaled): 4.5 ± 1.2%
Peak MetHgb (%) On Day 1 Male (Sprague-Dawley rats; 18 mg/kg/day inhaled): 3.4 ± 0.3%
Peak MetHgb (%) On Day 7 Female (Sprague-Dawley rats; 18 mg/kg/day inhaled): 3.8 ± 0.6%
Peak MetHgb (%) On Day 7 Male (Sprague-Dawley rats; 18 mg/kg/day inhaled): 2.3 ± 0.2%
Peak MetHgb (%) On Day 1 Female (Sprague-Dawley rats; 101 mg/kg/day inhaled): 50 ± 3.0%
Peak MetHgb (%) On Day 1 Male (Sprague-Dawley rats; 101 mg/kg/day inhaled): 41 ± 3.3%
Mortality (%) Female (Sprague-Dawley rats; [2]): 30%
Mortality (%) Male (Sprague-Dawley rats; [2]): 0%
% of particles < 3 μm (Sprague-Dawley rats; Group 2 Low Dose): 97.6%
MMAD (Sprague-Dawley rats; Group 2 Low Dose): 1.0 μm
% of particles < 3 μm (Sprague-Dawley rats; Group 3 Mid Dose): 87.6%
MMAD (Sprague-Dawley rats; Group 3 Mid Dose): 1.4 μm
% of particles < 3 μm (Sprague-Dawley rats; Group 4 High Dose): 78.5%
MMAD (Sprague-Dawley rats; Group 4 High Dose): 1.7 μm
Peak MetHgb (%) On Day 7 Female (Sprague-Dawley rats; [3]): 36 ± 3.0 %
Peak MetHgb (%) On Day 7 Male (Sprague-Dawley rats; [3]): 16 ± 4.7 %
AUC (in vivo; [4]): 15.8 ng·h/mL
Cmax (in vivo; [4]): 1800 nM
Tmax (in vivo; [4]): 5 min
half-life (in vivo; [4]): 4 min
AUC (in vivo; [5]): 292 ng·h/mL
Cmax (in vivo; [5]): 25800 nM
Tmax (in vivo; [5]): 5 min
half-life (in vivo; [5]): 10 min
Cmax (in vivo; other: intratracheal insufflation of dry powder, 10 ug/kg): ~200 nM
plasma nitrite, extrapolated [1]: ~0.1 µM
